51 compounds from PubChem BioAssay AID1996 can be followed below.

≈ marks a conversion by molar mass, not a printed value.

For the data set the following is noted: buffer; pH 7.4; 200.0 µM.
Turning to `COc1cc(OC)cc(C(=O)N[C@H](C(=O)OCC(=O)Nc2ccc3c(c2)OCO3)C(C)C)c1`, the kinetic solubility (usually the concentration staying in solution when a stock, usually in DMSO, is diluted into the medium) came out at 21.2 µg/mL (≈ 46.2 µM).

In turn, `COc1ccc(CCNC(=O)c2c(C)nc3ccccn23)cc1OC` displayed a solubility (kinetic) greater than 50.9 µg/mL.

Compound `COc1cccc(/C=C/C(=O)OCC(=O)NC2CC2)c1OC` came in with a kinetic solubility of 24 µg/mL (≈ 78.6 µM).

On to `COc1cc(/C=C/C(=O)OC(C)C(=O)Nc2ccc(Cl)cn2)ccc1OC(F)F` (stereo unspecified), for which the kinetic solubility stood at 2.8 µg/mL (≈ 6.56 µM).

In turn, `Cc1cccc(CNS(=O)(=O)c2csc(C(N)=O)c2)c1` displayed a kinetic solubility greater than 46.6 µg/mL.

Take `Cc1cccc(NC(=O)c2ccc(-c3ccccc3[N+](=O)[O-])o2)c1`: the solubility (kinetic) was 12.8 µg/mL (≈ 39.7 µM).

Compound `Cc1ccc(NC(=O)C(C)OC(=O)CCC2CCCCC2)cc1` (stereo unspecified) came in with a kinetic solubility of 4.1 µg/mL (≈ 12.9 µM).

As for `Cc1cccc(NC(=O)c2cccc(C(=O)Nc3cccc(C)n3)c2)n1`, the kinetic solubility came to 0.9 µg/mL (≈ 2.6 µM).

For the compound `Cc1ccccc1NC1(C#N)CCCCC1`, the solubility (kinetic) was 3.6 µg/mL (≈ 16.8 µM).

In turn, `CCCNC(=S)Nc1ccc(F)cc1F` yielded a solubility (kinetic) greater than 34.5 µg/mL.

Regarding `COc1cccc(Nc2nc(C)nc3c2oc2ccccc23)c1`, the solubility (kinetic) amounted to 0.3 µg/mL (≈ 0.983 µM).

`COc1cc(OC)cc(C(=O)Nc2ccc3c(c2)OCCO3)c1` came in with a solubility (kinetic) of 44.8 µg/mL (≈ 142 µM).

Consider `CCCc1cnc(N2CCN(C(=O)c3ccc(OC)cc3)CC2)nc1`, for which the kinetic solubility is 20.5 µg/mL (≈ 60.2 µM). Compared with the last compound, the solubility kinetic is about 2.2-fold lower.

Consider `CCN(c1ccccc1)c1nc2nonc2nc1NCCO`, for which the solubility (kinetic) is greater than 45 µg/mL.

Compound `Cc1ccccc1NC(=O)C(NC1CCCCC1)C(C)C` (stereo unspecified) gave a kinetic solubility of 6.7 µg/mL (≈ 23.2 µM).

`COc1ccc(C(=O)OCC(=O)NC(=O)NC2CCCC2)c(O)c1` had a kinetic solubility of 4.1 µg/mL (≈ 12.2 µM).

Consider `Cc1c(CCO)c(=O)n2c([nH]c3ccccc32)c1C#N`, for which the solubility (kinetic) turned out to be 19 µg/mL (≈ 71.1 µM).

`Cc1nnc(SCC(=O)NC2CC2)s1`: the solubility (kinetic) was greater than 34.4 µg/mL.

On to `Cc1noc(C)c1C(=O)N1CCN(c2ccccc2O)CC1`, for which the kinetic solubility is 44.9 µg/mL (≈ 149 µM).

In turn, `O=C(CSc1ncccn1)Nc1cccc2ccccc12` returned a solubility (kinetic) greater than 44.3 µg/mL.

Turning to `Cc1cccc(NS(=O)(=O)c2c(C)noc2C)c1`, the kinetic solubility was greater than 39.9 µg/mL.

Consider `O=C1Nc2ccccc2C1C(C[N+](=O)[O-])c1ccccc1` (stereo unspecified), for which the kinetic solubility is greater than 42.3 µg/mL.

In turn, `CC(CN1C(C)CCCC1C)OC(=O)c1ccccc1F.Cl` (stereo unspecified) returned a kinetic solubility greater than 49.5 µg/mL.

As for `CNC(=O)Cn1ncc2c3ccccc3n(C)c2c1=O`, the kinetic solubility was greater than 40.5 µg/mL.

`O=C(Nc1nc(-c2ccc(F)c(F)c2)cs1)Nc1ccc(F)cc1F` displayed a solubility (kinetic) of less than 0.3 µg/mL.

`Cc1ccc(OCC(=O)Nc2ccccc2F)cc1`: the solubility (kinetic) worked out at 4.6 µg/mL (≈ 17.7 µM).

For the compound `S=c1nccc(-c2ccc(Cl)cc2)[nH]1`, the solubility (kinetic) was 26.7 µg/mL (≈ 120 µM).

On to `O=C(COC(=O)C1CC2C=CC1C2)Nc1ccc([N+](=O)[O-])cc1` (stereo unspecified), for which the solubility (kinetic) is greater than 47.4 µg/mL.

`N#C/C(=C\c1cccnc1)c1ccccc1[N+](=O)[O-]` yielded a solubility (kinetic) of 8 µg/mL (≈ 31.8 µM).

The compound `CNc1nc2c(N)ncnc2n1[C@H]1O[C@@H](CO)[C@H](O)[C@@H]1O` yielded a solubility (kinetic) greater than 44.4 µg/mL.

With `Cn1ccnc1SCC(=O)N1CCc2ccccc21`, the solubility (kinetic) was determined as 38.9 µg/mL (≈ 142 µM).

On to `COc1ccc(NC(=O)CCCC(=O)NCCc2ccc(OC)c(OC)c2)cc1`, for which the solubility (kinetic) stood at 46 µg/mL (≈ 115 µM).

Regarding `COc1cccc(CNc2ccccn2)c1O`, the kinetic solubility was greater than 34.5 µg/mL.

With `Cn1c(O)c(C=NCCN2CCNCC2)c(=O)[nH]c1=O`, the solubility (kinetic) is greater than 42.2 µg/mL.

Take `CCCC(=O)Nc1ccc(S(=O)(=O)Nc2nccs2)cc1`: the kinetic solubility amounted to 30.4 µg/mL (≈ 93.4 µM).

On to `COC(=O)Cn1cc([N+](=O)[O-])nc1C`, for which the kinetic solubility is greater than 29.9 µg/mL.

For the compound `COc1ccc(CNCc2cccn2C)cc1.Cl`, the solubility (kinetic) was greater than 40 µg/mL.

The compound `O=C(CN1C(=O)NC(CCc2ccccc2)C1=O)N1CCCCCC1` (stereo unspecified) showed a kinetic solubility greater than 51.5 µg/mL.

Consider `CC(=O)NCCc1nc2cc(NC(=O)Nc3ccccc3)ccc2n1C`, for which the kinetic solubility was greater than 52.7 µg/mL.

As for `O=c1cc(O)c2sc(Nc3ccc(F)cc3)nc2[nH]1`, the kinetic solubility was determined as 0.3 µg/mL (≈ 1.08 µM).

Compound `COc1ccccc1NS(=O)(=O)c1ccc(C)c(C(=O)N2CCN(c3ccc(O)cc3)CC2)c1.Cl` showed a kinetic solubility greater than 77.7 µg/mL.

The compound `CCN(C(=O)CSc1nc2ccccc2c(=O)n1-c1ccccc1F)C1CCS(=O)(=O)C1` (stereo unspecified) yielded a kinetic solubility of 9.5 µg/mL (≈ 20 µM).

Take `CC(=O)NCCc1ccc(C(=O)COC(=O)c2cccn2C)cc1`: the kinetic solubility is greater than 49.3 µg/mL.

For the compound `CCc1ccc(C(C)NC(=S)NC2CCCCC2)cc1` (stereo unspecified), the kinetic solubility was determined as 11.4 µg/mL (≈ 39.2 µM).

Compound `O=C(c1cccc([N+](=O)[O-])c1)N1CCCC(C(=O)N2CCCCCC2)C1` (stereo unspecified) yielded a solubility (kinetic) greater than 53.9 µg/mL.

The compound `CC(C)(C)Nc1nc(-c2ccccn2)nc2ccccc12` registered a kinetic solubility greater than 41.8 µg/mL.

Regarding `O=S(=O)(O)c1cccnc1SCc1ccccc1`, the kinetic solubility was found to be 41 µg/mL (≈ 146 µM).

Take `NS(=O)(=O)c1ccc(CNS(=O)(=O)c2cccc3nonc23)cc1`: the solubility (kinetic) stood at 54.4 µg/mL (≈ 148 µM).

Turning to `COc1ccc(C2C(C)C3(O)CC(C#N)(C(=O)N3)C2(C#N)C#N)cc1` (stereo unspecified), the solubility (kinetic) was greater than 50.5 µg/mL.

Take `CC(=O)Cn1c(CN2CCCCC2)nc2ccccc2c1=O`: the kinetic solubility was greater than 44.9 µg/mL.

Take `O=C(N/N=C/c1ccccn1)c1cccnc1`: the solubility (kinetic) is greater than 33.9 µg/mL.
